Test results as given in US20250064057A1, “HARMFUL ALGAL BLOOM MITIGATION” (priority 2023, published 2025).

Experiments:
Karenia brevis = assay: K. brevis cell abundance reduction (% R relative to control) in laboratory beakers/aquaria; assay type: cell-based; conditions: for mean % R in K. brevis cell abundance: beginning at 4 h
K. brevis = conditions: other studies; cited from earlier work

SMILES	mean % R in K. brevis cell abundance (Karenia brevis; 30 mg/L curcumin) [%]	mean % R in K. brevis cell abundance (Karenia brevis; 40 mg/L curcumin) [%]	reduction in K. brevis (best mitigation results) (Karenia brevis; 20-40 mg/L curcumin, T2-T6)	minimum concentration of curcumin for a reduction in K. brevis (Karenia brevis; laboratory studies) [mg/L]	effect on K. brevis cells (K. brevis)
COc1cc(/C=C/C(=O)CC(=O)/C=C/c2ccc(O)c(OC)c2)ccc1O [curcumin, (1E,6E)-1,7-Bis (4 (hydroxy-3-methoxyphenyl)-1,6-heptadiene-3,5-dione)]	> 90	> 90	60-100%	5	–
CCCCOC(=O)c1ccccc1C(=O)OCCCC [dibutyl phthalate]	–	–	–	–	inhibit cell growth, decrease cell abundance, reduce chlorophyll a, and cause oxidative stress
